Test results published in PubChem BioAssay AID1159564 (GlaxoSmithKline (GSK), 2015).
Calls of active or inactive are those of the source. How the calls were made is not given here.

Test system: L. donovani-infected THP-1 macrophages, intracellular amastigote imaging
Test: intracellular L. donovani amastigote inhibition, imaging, THP-1 host macrophages, host toxicity (AID 1159564)
[1] = measured here: THP-1 host cell toxicity
[2] = measured here: amastigotes per macrophage

| Structure (SMILES) | IC50 | IC50 [1] | IC50 [2] |
| --- | --- | --- | --- |
| CS(=O)(=O)NC1CCC(Oc2cc3cnccc3cc2-c2ccsc2)CC1 (configuration not stated) | 50 µM | 16 µM | 20 µM |
| O=C(Cn1cnc([N+](=O)[O-])n1)Nc1ccc(Cl)cc1C(=O)c1ccccc1 | > 50 µM (inactive) | > 50 µM | > 50 µM |
| c1ccc(CNc2cccc3ccncc23)cc1 | 7.9 µM | 50 µM | 5 µM |
| CN(C)c1ccc(-c2cc3nccnc3c(OC[C@H]3CCCNC3)n2)cn1 | 20 µM | 20 µM | 25 µM |
| O=C(CC1(O)C(=O)N(Cc2cccs2)c2ccc(Br)cc21)c1cccnc1 (configuration not stated) | > 50 µM (inactive) | 20 µM | > 50 µM |
| COc1ncc(-c2ccc3ncnc(N4CCOCC4)c3c2)cc1NS(C)(=O)=O | 5 µM | 1 µM | 0.63 µM |
| COc1cc(Cl)c(C)cc1NC(=O)c1ccc([N+](=O)[O-])s1 | 6.3 µM | > 50 µM | 5 µM |
| COc1ccc2ncc(F)c(CCN3CC[C@@H](NC(=O)c4cc5c(s4)CCC5)[C@@H](O)C3)c2n1 | 6.3 µM | 25 µM | 1.3 µM |
| COc1ccc2ncc(Cl)c(CCN3CC[C@H](NCc4cc5c(cn4)OCS5)[C@@H](O)C3)c2n1 | 1 µM | 6.3 µM | 0.5 µM |
| CCC(=O)Nc1ccc(C(=O)Nc2ccccc2-c2ccccc2)cc1 | 20 µM | 16 µM | 25 µM |
| O=C(CN1CCN(S(=O)(=O)c2cccc([N+](=O)[O-])c2)CC1)Nc1ccc(Oc2ccccc2)cc1 | 7.9 µM | > 50 µM | 2 µM |
| COc1ccc(-c2cnc(C)o2)cc1S(=O)(=O)Nc1ccc(C)cc1C | 3.2 µM | > 50 µM | 2.5 µM |
| N#Cc1cccc(CN2CCC(c3nc(-c4ccc(C(F)(F)F)nc4)no3)CC2)c1 | > 50 µM (inactive) | > 50 µM | > 50 µM |
| O=c1[nH]cnc2c([C@@H]3O[C@H](CO)[C@@H](O)[C@H]3O)[nH]nc12 | 2 µM | > 50 µM | 0.4 µM |
| COc1cc2c(cc1OC)[C@H]1[C@@H](C)c3ccc(OC)c(OC)c3CN1CC2 | 20 µM | > 50 µM | 16 µM |
| COc1cc(C(C)C)c(S(C)(=O)=O)cc1C(=O)N1CCN(c2ccccc2Cl)CC1 | 16 µM | 16 µM | 13 µM |
| CCN(Cc1ccncc1)Cc1ccc(NC(=O)c2cc(-c3ccc(F)cc3)n[nH]2)cc1 | > 50 µM (inactive) | 5 µM | 2.5 µM |
| COc1ccc2ncc(F)c(NC(=O)C3(O)CCC(NCc4ccc5c(c4)OCCO5)CC3)c2n1 (configuration not stated) | 32 µM | 20 µM | 16 µM |
| Nc1nc(-c2ccccn2)nc(N)c1Cc1c(F)cccc1Cl | 1.3 µM | 32 µM | 1 µM |
| NC(=O)c1ccsc1NC(=O)c1ccc([N+](=O)[O-])s1 | 1.6 µM | 13 µM | 1.3 µM |
| CC(c1cc(Cl)cc(Cl)c1)N(C)c1ncc2c(N)nc(N)nc2n1 (configuration not stated) | 0.79 µM | 32 µM | 0.25 µM |
| Cc1cc(NC(=O)CC2CCCCC2)n(-c2nc3c(c(=O)[nH]2)CCC3)n1 | 3.2 µM | 4 µM | 1.6 µM |
| Cc1cccc(N2CCCN(Cc3c[nH]c4ccccc34)CC2)n1 | 10 µM | 10 µM | 10 µM |

| Structure (SMILES) | IC50 | IC50 [1] | IC50 [2] |
| --- | --- | --- | --- |
| COc1ccccc1CNc1cc(C2CC2)nc(-c2nccn2C)n1 | 0.5 µM | 16 µM | 0.4 µM |
| O=C(Nc1nc(-c2ccc(S(=O)(=O)N3CCOCC3)cc2)cs1)c1ccc([N+](=O)[O-])cc1 | > 50 µM (inactive) | 4 µM | 2.5 µM |
| Cc1c([N+](=O)[O-])c(C(=O)Nc2sc3c(c2C#N)CCC(C)C3)nn1C (configuration not stated) | 32 µM | > 50 µM | 16 µM |
| COc1ncc(-c2ccc3nccc(-c4ccncc4)c3c2)cc1NS(C)(=O)=O | 2.5 µM | 3.2 µM | 0.63 µM |
| Cc1[nH]nc(C(F)(F)F)c1NC(=O)CCn1cc(Cl)c([N+](=O)[O-])n1 | > 50 µM (inactive) | 16 µM | > 50 µM |
| O=S1N=C(NCCCN(Cc2ccc(F)cc2)c2ccccn2)C(NCc2ccncc2)=N1 (configuration not stated) | > 50 µM (inactive) | 25 µM | 25 µM |
| COc1ccc(-c2ccc3nnc(-c4ccc(O)c(OC)c4)n3c2)cn1 | > 50 µM (inactive) | > 50 µM | > 50 µM |
| CCS(=O)(=O)Nc1ccc(C2=NN(C(=O)c3cccs3)C(c3ccccc3OC)C2)cc1 (configuration not stated) | 7.9 µM | > 50 µM | 7.9 µM |
| O=C(NC1C(=O)N(c2ccccc2)C1c1cccnc1)c1ccc(Cl)s1 (configuration not stated) | > 50 µM (inactive) | > 50 µM | 0.79 µM |
| CC(=O)Nc1ccc(-c2cnc(N)c(-c3nc4ccc(F)cc4[nH]3)c2)cc1 | 1 µM | 7.9 µM | 0.5 µM |
| COc1ccc(CNc2nsc3ccccc23)cc1OC | 6.3 µM | 25 µM | 5 µM |
| CCc1cc(C(=O)Nc2nccn2-c2ccccc2)cs1 | 13 µM | 32 µM | 5 µM |
| CC(Cn1ccnc1)NC(=O)C1CC1c1cccc(Cl)c1Cl (configuration not stated) | > 50 µM (inactive) | > 50 µM | 10 µM |
| COc1ccc(OC)c(S(=O)(=O)N(Cc2c(F)cccc2F)[C@@H]2CCN(C#N)C2)c1 | 25 µM | 20 µM | 20 µM |
| O=c1cc(CSc2ccc(Cl)cc2)nc(-c2ccccn2)[nH]1 | 5 µM | 4 µM | 2 µM |
| COc1ccc(C(C)(C)C)cc1S(=O)(=O)n1ccnc1 | > 50 µM (inactive) | > 50 µM | 25 µM |
| Cc1cc(C)nc(N2CCC(N(Cc3cccnc3)C(=O)c3cccc(C#N)c3)CC2)n1 | > 50 µM (inactive) | > 50 µM | > 50 µM |
| CCC(=O)Nc1ccccc1C(=O)Nc1ccccn1 | > 50 µM (inactive) | > 50 µM | > 50 µM |
| CCN(CC)c1nc(Nc2ccncc2)nc2ccccc12 | 6.3 µM | 25 µM | 2 µM |
| CCN(Cc1cccs1)C(=O)CSc1nnc(-c2ccc3c(c2)OCO3)o1 | 2 µM | > 50 µM | 2 µM |
| c1ccc(Nc2nc(-c3ccccn3)cc(N3CCOCC3)n2)cc1 | 2 µM | > 50 µM | 1.3 µM |
| Cc1ccc2ccc(C(Nc3ccccn3)c3cccnc3)c(O)c2n1 (configuration not stated) | 13 µM | > 50 µM | 7.9 µM |
| CCCCNc1nccc(-c2c(-c3ccc(F)cc3)nn3c(N4CCOCC4)cccc23)n1 | 6.3 µM | 13 µM | > 50 µM |

| Structure (SMILES) | IC50 | IC50 [1] | IC50 [2] |
| --- | --- | --- | --- |
| COc1ccc(S(=O)(=O)NC(C)C)cc1Nc1ncc(-c2cccc(F)c2)cn1 | > 50 µM (inactive) | > 50 µM | > 50 µM |
| O=C(Nc1nc(-c2ccccn2)cs1)N1C[C@H]2C[C@@]2(c2ccccc2)C1 | 0.5 µM | 7.9 µM | 0.4 µM |
| Cc1cc(NC(=O)C2CC2)ccc1OC1CCN(Cc2ccco2)CC1 | 20 µM | 13 µM | 13 µM |
| N#Cc1ccccc1S(=O)(=O)N1CCN(C(=O)CNC(=O)c2ccc3c(c2)OCO3)CC1 | 5 µM | > 50 µM | 1.6 µM |
| NC(=O)c1ncccc1Nc1nc(NC2CCC(O)CC2)ncc1Br (configuration not stated) | 1.3 µM | 0.4 µM | 0.63 µM |
| Cc1nc(-c2nc(NCc3ccc(Cl)cc3)c3cccnc3c2O)n[nH]1 | 0.5 µM | 6.3 µM | 0.5 µM |
| CNc1cncc(C2CCCN2C(=O)Cc2ccc3ccccc3c2)n1 (configuration not stated) | > 50 µM (inactive) | > 50 µM | > 50 µM |
| N#Cc1ccc(S(=O)(=O)N2CCC3(CCN(c4ccccc4)C3=O)CC2)cc1 | > 50 µM (inactive) | > 50 µM | > 50 µM |
| N#Cc1cccc(Cc2cc(Nc3cc(C4CC4)[nH]n3)nc(N3CC[C@H]3C(N)=O)n2)c1 | 0.2 µM | 0.032 µM | 0.079 µM |
| O=C(Nc1cccc(Cl)c1)N1CCCCC1c1cccnc1 (configuration not stated) | > 50 µM (inactive) | > 50 µM | > 50 µM |
| Cc1ccc2c(c1)SC(C(=O)Nc1n[nH]c(-c3ccccn3)n1)C2 (configuration not stated) | 4 µM | 25 µM | 2.5 µM |
| COc1ncc(-c2ccc3nccc(-c4ccncc4)c3c2)cc1NS(=O)(=O)C1CC1 | 1.3 µM | 1 µM | 0.32 µM |
| CC(=O)Nc1nc(-c2cc(C)ccc2C)c(C)s1 | > 50 µM (inactive) | > 50 µM | 32 µM |
| COc1ccc2ncc(=O)n(CCN3CC[C@H](NCc4ncc(Cl)c5[nH]ncc45)[C@H](O)C3)c2n1 | > 50 µM (inactive) | > 50 µM | > 50 µM |
| CC1(Oc2cncc(Cl)c2)CCN(Cc2cc3ccccc3[nH]2)C1 (configuration not stated) | 20 µM | 32 µM | 32 µM |
| CC(=O)Nc1ccc(-c2csc(NC(=O)c3ccc([N+](=O)[O-])s3)n2)cc1 | 1 µM | 13 µM | 0.79 µM |
| O=C(NCc1nnc2n1CCCCC2)c1ccc(-c2ccc(F)cc2)o1 | > 50 µM (inactive) | > 50 µM | > 50 µM |
| O=C(NCC1CCCCC1)c1cnns1 | > 50 µM (inactive) | > 50 µM | 10 µM |
| O=C(NCCc1nc(-c2ccc(F)c(F)c2)n[nH]1)C1CCCCC1 | > 50 µM (inactive) | 20 µM | 16 µM |
| COc1cc(-c2noc(CC#N)n2)ccc1OC(F)F | > 50 µM (inactive) | 50 µM | > 50 µM |
| CN1CCN(c2nc(-c3ccc(Cl)cc3)c3c(N)n(C)nc3n2)CC1 | 40 µM | 40 µM | 32 µM |
| CCCc1cc(C(=O)Nc2ncc(-c3cccc(Br)c3)n2C)n[nH]1 | 5 µM | 32 µM | 4 µM |
| COc1ccccc1C(=O)Nc1nnc(-c2ccc3c(c2)OCO3)s1 | 1 µM | 16 µM | 0.63 µM |
